Results as given in ChEMBL document CHEMBL3860109, “Benzenesulfonamides Incorporating Flexible Triazole Moieties Are Highly Effective Carbonic Anhydrase Inhibitors: Synthesis and Kinetic, Crystallographic, Computational, and Intraocular Pressure Lowering Investigations” (J Med Chem, 2016).
The source made the active and inactive calls. The rule behind the calls is not given here.

Tests used:
Carbonic anhydrase 9 = Carbonic anhydrase 9 (Homo sapiens, UniProt Q16790)
Description: Inhibition of human carbonic anhydrase 9 pre-incubated for 15 mins by stopped flow carbon dioxide hydrase assay

Oryctolagus cuniculus [1] = species on record: Oryctolagus cuniculus; test: Reduction in intraocular pressure in New Zealand albino rabbit model of hypertonic saline-induced ocular hypertension at 1 to 2% instilled immediately after hypertonic saline injection measured after 2 hrs post dose; format: functional, Eye
Carbonic anhydrase 1 = Carbonic anhydrase 1 (Homo sapiens, UniProt P00915); test: Inhibition of human carbonic anhydrase 1 pre-incubated for 15 mins by stopped flow carbon dioxide hydrase assay
Chain of Carbonic anhydrase 1 (P00915 whole entry): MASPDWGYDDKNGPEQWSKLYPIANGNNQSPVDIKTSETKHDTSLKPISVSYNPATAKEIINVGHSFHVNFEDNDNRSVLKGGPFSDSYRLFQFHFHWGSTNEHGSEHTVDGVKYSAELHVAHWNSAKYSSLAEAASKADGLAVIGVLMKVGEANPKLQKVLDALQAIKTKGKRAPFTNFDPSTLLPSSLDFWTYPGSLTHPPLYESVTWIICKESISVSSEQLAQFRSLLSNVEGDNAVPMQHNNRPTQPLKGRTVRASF

Carbonic anhydrase 2 = Carbonic anhydrase 2 (Homo sapiens, UniProt P00918); test: Inhibition of human carbonic anhydrase 2 pre-incubated for 15 mins by stopped flow carbon dioxide hydrase assay
Oryctolagus cuniculus [2] = species on record: Oryctolagus cuniculus; test: Reduction in intraocular pressure in New Zealand albino rabbit model of hypertonic saline-induced ocular hypertension at 1 to 2% instilled immediately after hypertonic saline injection measured after 4 hrs post dose; format: functional; conditions: Eye

| Compound | Ki (Carbonic anhydrase 9) [nM] | further results |
| --- | --- | --- |
| NS(=O)(=O)c1ccc(-n2cc(COc3cccnc3)nn2)cc1 | 17.2 |  |
| NS(=O)(=O)c1ccc(-n2cc(CSc3ccccc3)nn2)cc1 | 2.4 |  |
| NS(=O)(=O)c1ccc(-n2cc(CNc3ccccc3)nn2)cc1 | 2.2 | Activity (Oryctolagus cuniculus [1]): 2 mmHg |
| NS(=O)(=O)c1ccc(-n2cc(CN(Cc3cn(-c4ccc(S(N)(=O)=O)cc4)nn3)c3ccccc3)nn2)cc1 | 12.1 | Ki (Carbonic anhydrase 1): > 10000 nM; Ki (Carbonic anhydrase 2): > 10000 nM |
| COc1ccc(OCc2cn(-c3ccc(S(N)(=O)=O)cc3)nn2)cc1 | 14.3 |  |
| NS(=O)(=O)c1ccc(-n2cc(-c3ccccc3)nn2)cc1 |  | Ki (Carbonic anhydrase 1): 342 nM |
| NS(=O)(=O)c1ccc(-n2cc(COc3ccccc3)nn2)cc1 | 2.1 | Activity (Oryctolagus cuniculus [1]): 3 mmHg; Activity (Oryctolagus cuniculus [2]): Active |
| COc1cccc(OCc2cn(-c3ccc(S(N)(=O)=O)cc3)nn2)c1 | 9.3 |  |
| NS(=O)(=O)c1ccc(OCc2cn(-c3ccc(O)cc3)nn2)cc1 | 18.7 |  |
| NS(=O)(=O)c1ccc(OCc2cn(-c3ccccc3)nn2)cc1 | 2.6 |  |
| Cc1cccc(OCc2cn(-c3ccc(S(N)(=O)=O)cc3)nn2)c1 | 2.3 |  |
| NS(=O)(=O)c1ccc(OCc2cn(-c3ccc(F)cc3)nn2)cc1 | 16.2 |  |
| COc1cccc(-n2cc(COc3ccc(S(N)(=O)=O)cc3)nn2)c1 | 20.5 |  |
| NS(=O)(=O)c1ccc(OCc2cn(-c3ccc(C(F)(F)F)cc3)nn2)cc1 | 23.6 | Ki (Carbonic anhydrase 1): > 10000 nM |
